Results taken from paper PMC11940195, “Characterization of a GH43 Bifunctional Glycosidase from Endophytic Chaetomium globosum and Its Potential Application in the Biotransformation of Ginsenosides” (BioTech, 2025).

Tested on: T1, Xyaf313
T1 construct: gene of 1380 bp, 460 aa, about 50 kDa theoretical; C-terminal His6; codon-optimized, pPIC9K, secreted from Pichia pastoris GS115, Ni-NTA
Test: p-nitrophenol release, Michaelis-Menten nonlinear fit
Type: biochemical, Chaetomium globosum
Conditions: pH 7, 50 °C (optimal conditions); substrate 0.5-5.0 mM
From the text: p-nitrophenol release, Michaelis-Menten nonlinear fit on Xyaf313

| Km [mM] | Compound |
| --- | --- |
| 1.77 ± 1.27 | O=[N+]([O-])c1ccc(O[C@@H]2OC[C@@H](O)[C@H](O)[C@H]2O)cc1 [ρ-nitrophenyl β-D-xylopyranoside] |
| 5.65 ± 1.67 | O=[N+]([O-])c1ccc(O[C@@H]2O[C@@H](CO)[C@H](O)[C@H]2O)cc1 [4-nitrophenyl α-L-arabinofuranoside] |
